Legend:
[1] = tested on: Plasmodium falciparum; assay: NOVARTIS: Inhibition of Plasmodium falciparum 3D7 (drug-susceptible) proliferation in erythrocyte-based infection assay; format: functional, organism-based; details: Plasmodium falciparum, 3D7
[2] = tested on: Plasmodium falciparum; assay: NOVARTIS: Inhibition of Plasmodium falciparum W2 (drug-resistant) proliferation in erythrocyte-based infection assay; format: functional, organism-based; details: Plasmodium falciparum, W2; read-out: EC50
[3] = NOVARTIS: Cytotoxicity against human hepatocellular carcinoma cell line (Huh7); format: toxicity, cell-based, Huh-7; details: Huh7 cells (hepatocellular carcinoma cell line)

SMILES	EC50 [1] [nM]	EC50 [2] [nM]	CC50 [3] [nM]
COC(=O)c1c(-c2c(Cl)cccc2Cl)noc1/C=C/Nc1ccccc1	290	< 6.76	> 10000
CCN1CCC(N2CCC(n3c(Cc4ccccc4OC)nc4cc(F)ccc43)CC2)CC1	413	350	37700
O=C(O)Cn1cnc2nc3n(c2c1=O)CCC3	> 10400	2420	> 100000
CC(CCCO)Nc1ccnc2cc(Cl)ccc12 (centres undefined)	561	513	> 10000
CCCCOc1ccc(NC2=NC3(CCCC3)NC(N)=N2)cc1	1090	2330	> 100000
CCCCc1c(C)nc2c(OC)cccc2c1O	1690	2110	> 100000
CC(C)CN1C(=O)c2ccccc2C(C(=O)Nc2ccc(F)cc2F)C1c1cccs1 (centres undefined)	219	129	> 100000
O=C(c1cnsn1)N1CCCC(COc2cccc(CN3CCC(Cc4ccccc4)CC3)c2)C1 (centres undefined)	> 3670	> 12500	> 100000
CCN1/C(=C/C2=CC(=C/c3sc4ccccc4[n+]3CC)/CC(C)(C)C2)C=Cc2ccccc21	486	1030	42200
CC(=O)NCCc1ccc(O)cc1	> 1670	< 13.7	> 10000
COc1cc(C(=O)NC(c2cccs2)c2cc(Cl)c3cccnc3c2O)cc(OC)c1OC (centres undefined)	1490	1230	> 100000
CC(C)(C)NCC(O)Cn1c2ccc(Cl)cc2c2cc(Cl)ccc21 (centres undefined)	258	56.3	18800
OC1(c2cccc3ccccc23)CCN(Cc2ccccc2)C1 (centres undefined)	457	148	23100
COc1cc(NC(=O)Cc2ccccc2OC)cc(OC)c1	> 1690	> 386	> 10000
COc1cc(NC(C)CCCN(Cc2ccccc2OC)C(=O)Nc2cccc(F)c2)c2ncccc2c1 (centres undefined)	> 1660	840	> 10000
Cc1ccc2ccc3ccc(C)nc3c2n1 [NEOCUPROINE]	97.1	24.3	> 100000
CCN(CC)S(=O)(=O)c1cc(C(=O)O)ccc1Cl	640	> 1170	> 10000
O=C(NCc1ccccc1)c1cnc(NCCC(c2ccccc2)c2ccccc2)nc1NCC1CCCCC1	527	292	> 10000
CCN1CCN(C/C=C/c2ccccc2[N+](=O)[O-])CC1	> 1250	1410	> 10000
CCOc1ccc(NC(=O)C(C)Sc2nc3ccccc3[nH]2)cc1 (centres undefined)	> 12500	> 7600	> 100000
CC(CC(=O)NCCCCNc1ccnc2cc(Cl)ccc12)CC(C)(C)C (centres undefined)	443	296	4590
CC1(C)CN=C(N2CCN(CC(O)COc3ccc(OCC(O)CN4CCN(C5=NCC(C)(C)S5)CC4)cc3)CC2)S1 (centres undefined)	2420	> 1250	> 10000
CCc1ccc2[nH]c(=O)c(CN(Cc3ccc(OC)cc3)C(=S)NCCCN(CC)CC)cc2c1	3460	554	18200

SMILES	EC50 [1] [nM]	EC50 [2] [nM]	CC50 [3] [nM]
CCc1ccc(Nc2cc(C)nc3nc(C)nn23)cc1	574	768	> 100000
CC(=O)c1cccc(CN2CCC(C(=O)Nc3ccc(-n4nc(C)cc4C)cc3)CC2)c1	2160	1950	> 100000
C=C[C@H]1CN2CC[C@H]1C[C@H]2[C@H](O)c1ccnc2ccc(OC)cc12 [QUININE]	993	1320	> 6250
COc1ccc(CNCCN2CCN(c3ccc(C)cc3)C[C@@H]2c2ccccc2)cc1	909	125	> 10000
CC1CC(C)CN(CCCNc2ccc(C(=O)Nc3ccc(C(F)(F)F)cc3)cc2[N+](=O)[O-])C1 (centres undefined)	119	401	> 100000
O=C(c1cccc([N+](=O)[O-])c1)c1ccc(Cl)c(Cl)c1	612	57.5	62400
CCOC(=O)C1=C(CC)NC2=C(C(=O)CC(C)(C)C2)C1c1ccc(Cl)cc1Cl (centres undefined)	208	45.9	> 100000
CCN1CCN(c2cc(C)c3cc(NC(=O)c4ccc(F)c([N+](=O)[O-])c4)ccc3n2)CC1	1160	365	42900
COc1ccc(C2C(C(=O)Nc3cc(C)on3)c3ccccc3C(=O)N2C2CCCCC2)cc1 (centres undefined)	895	> 1030	> 10000
O=C(c1ccncc1)N1CCN(Cc2ccc3c(c2)OCO3)CC1	964	176	> 10000
O=C(Nc1ccc(-c2nc3ccccc3[nH]2)cc1)c1ccc(-c2cccc([N+](=O)[O-])c2)o1	2240	924	> 100000
COC(=O)c1ccnn(-c2ccccc2)c1=O	> 1690	319	12900
CCN(CC)c1cc(-c2ccccn2)nc(-c2ccccn2)n1	578	418	> 10000
C=CCNC(=S)N1CCN(c2ccc([N+](=O)[O-])cc2)CC1	2370	> 1250	> 10000
O=C(Nc1ccc(Cl)cc1Cl)c1ccc(-c2nc(-c3ccccc3Cl)cs2)cc1	150	106	> 7930
CCCCCN(CC(=O)Nc1cc(C(C)(C)C)nn1-c1ccc(Cl)c(Cl)c1)C(=O)c1ccc2c(c1)OCO2	1040	966	> 10000
CCCCNC(=O)c1ccc2c(c1)N=C(CC(C)c1ccccc1)N(C1CCCCC1)C2 (centres undefined)	1450	8210	48700
CCN(CC)CCCC(C)Nc1nc(/C=C/c2ccccc2OC)nc2cc(Cl)ccc12 (centres undefined)	878	688	> 10000
CC(C)(C)NC(=O)C(c1cccs1)N(CCCN1CCOCC1)C(=O)c1ccc(-c2ccccc2)[nH]1 (centres undefined)	1230	1110	> 10000
CCCN(C(=O)Nc1c(C(C)C)cccc1C(C)C)C(CC)c1nc2ccccc2c(=O)n1-c1cccc(C)c1 (centres undefined)	3170	4580	80900
Oc1ccc(-c2cncnc2)cc1CNC1CCN(Cc2ccccc2)CC1	698	671	> 100000
CC(=O)OC1(C)CC(C)C(=O)C(C(O)CC2CC(=O)NC(=O)C2)C1 (centres undefined)	74.7	58.7	> 5890
CCOc1ccc(C2C(C(=O)OC)=CNC=C2C(=O)OC)cc1Cl	304	581	> 100000

SMILES	EC50 [1] [nM]	EC50 [2] [nM]	CC50 [3] [nM]
CCCCCc1ccc(-c2ccc(/C(C=[N+](C)C)=C\N(C)C)cc2)cc1	606	1050	> 10000
CCCOC(=O)C1=C(C)NC2=C(C(=O)CC(c3ccc(OC)c(OC)c3)C2)C1c1ccc(O)c(OCC)c1 (centres undefined)	2400	1280	> 100000
COc1ccc(-n2nc(C(=O)NCC(=O)NCCCN3CC(C)CC(C)C3)c3ccccc3c2=O)cc1Cl (centres undefined)	> 7360	1870	76400
COc1ccc(/C=C2\SC(=Nc3ccccc3)NC2=O)cc1	342	233	> 10000
CCOC(=O)Cn1cnc2c(nnn2Cc2ccc(F)cc2)c1=O	380	160	> 1700
N=c1c2c(n(Cc3cccc(Cl)c3)c3c1CCC3)CCCC2	992	378	> 10000
CC(C)NC(=O)c1ccc(OC2CCN(CC3CCCCC3)CC2)c(Cl)c1	476	298	65900
COc1ccc(OC)c(-c2ccc(O)c(CNCC(C)C)c2)c1	950	773	> 10000
CCCN1/C(=C/c2sc3ccccc3[n+]2CC)C=Cc2ccccc21	820	1340	> 10000
O=[N+]([O-])c1cccc(-c2ccc(C=NNc3nc4ccccc4[nH]3)o2)c1	379	344	> 100000
Cc1cccc(NC(=S)NC2CC3CCCC(C2)N3CCc2ccccc2)c1 (centres undefined)	668	914	30700
CCN1CCN(C2CCN(Cc3cc4ccc(F)cc4n(CCSc4ccccc4)c3=O)CC2)CC1	715	560	5480
Cc1nc(-c2ccccc2)nc(C(=O)N2CCN(C(=O)/C=C/c3ccccc3)C(C)C2)c1C(=O)OC(C)C (centres undefined)	> 1250	621	> 10000
COc1ccc(NC(=O)C2=C(C)NC(=S)NC2c2ccc(O)cc2)cc1 (centres undefined)	1420	342	> 10000
COC(=O)C1=C(C)NC2=C(C(=O)c3ccccc32)C1c1ccc(OCC#N)c(OC)c1 (centres undefined)	590	1530	84900
Nc1c(C(=O)Nc2ccc(C3=NCCN3)cc2)cccc1C(=O)Nc1ccc(C2=NCCN2)cc1	259	107	> 10000
CC1=C(CC(=O)c2cccc([N+](=O)[O-])c2)C(=O)c2ccccc2C1=O	2840	1720	4690
COc1cc(OC)nc(C(Sc2ccc(NC(=O)c3cccs3)cc2)c2ccccc2)n1 (centres undefined)	175	224	> 10000
Cc1n(-c2ccccc2)c2c([n+]1C)C(=O)c1ccccc1C2=O	6.55	12.9	427
Cc1ccc(NC(=O)N2CCN(C(=O)c3nc(-c4ccccc4)nc(C)c3C(=O)OC(C)C)CC2C)cc1 (centres undefined)	441	171	> 10000
COc1ccc(CCNc2nc(NCCCN(C)C)ncc2C(=O)NCc2ccccc2)cc1OC	605	> 1190	> 10000
CC(C)N1CCC(N2CCN(Cc3ccc4c(c3)Cc3ccccc3-4)CC2CCO)CC1 (centres undefined)	1540	905	20500
